{"source": "ChEMBL document CHEMBL5465560", "about": "“Selectivity Literature for EUbOPEN Chemogenomic Library” (2024)", "key": {"[1]": {"molecular_target": "Ribosomal protein S6 kinase alpha-5 (Homo sapiens) (UniProt O75582)", "sequence (O75582 whole entry, looked up)": "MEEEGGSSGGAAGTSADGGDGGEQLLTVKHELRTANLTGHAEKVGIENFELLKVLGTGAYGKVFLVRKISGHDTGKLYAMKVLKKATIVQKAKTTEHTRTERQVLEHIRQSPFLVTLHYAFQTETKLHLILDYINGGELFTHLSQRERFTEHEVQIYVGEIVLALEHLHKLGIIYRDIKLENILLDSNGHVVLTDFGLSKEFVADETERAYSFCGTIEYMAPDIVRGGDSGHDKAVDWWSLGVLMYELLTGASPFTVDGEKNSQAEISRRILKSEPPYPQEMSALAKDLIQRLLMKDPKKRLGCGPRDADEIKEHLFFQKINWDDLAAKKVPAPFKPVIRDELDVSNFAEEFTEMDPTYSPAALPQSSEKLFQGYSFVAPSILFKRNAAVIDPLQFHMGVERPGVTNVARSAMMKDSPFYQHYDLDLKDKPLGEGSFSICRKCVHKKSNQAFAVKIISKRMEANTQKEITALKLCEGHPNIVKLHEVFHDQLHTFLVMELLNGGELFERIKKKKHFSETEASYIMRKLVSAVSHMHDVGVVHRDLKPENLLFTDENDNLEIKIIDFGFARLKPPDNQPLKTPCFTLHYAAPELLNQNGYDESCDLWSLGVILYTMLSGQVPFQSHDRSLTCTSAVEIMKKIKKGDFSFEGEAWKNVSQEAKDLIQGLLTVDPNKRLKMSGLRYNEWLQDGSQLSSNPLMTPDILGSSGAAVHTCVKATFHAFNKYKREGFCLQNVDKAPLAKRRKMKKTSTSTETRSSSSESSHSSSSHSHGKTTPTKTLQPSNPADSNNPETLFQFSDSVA", "test": "Selectivity interaction (KinomeScan (DiscoverX)) EUB0000045b RPS6KA5", "conditions": "at 1 µM"}, "[2]": {"molecular_target": "Vascular endothelial growth factor receptor 3 (Homo sapiens, UniProt P35916)", "test": "Selectivity interaction (KinomeScan (DiscoverX)) EUB0001079a FLT4", "conditions": "at 1 µM"}, "[3]": {"molecular_target": "Protein kinase C eta type (Homo sapiens) (UniProt P24723)", "sequence (P24723 whole entry)": "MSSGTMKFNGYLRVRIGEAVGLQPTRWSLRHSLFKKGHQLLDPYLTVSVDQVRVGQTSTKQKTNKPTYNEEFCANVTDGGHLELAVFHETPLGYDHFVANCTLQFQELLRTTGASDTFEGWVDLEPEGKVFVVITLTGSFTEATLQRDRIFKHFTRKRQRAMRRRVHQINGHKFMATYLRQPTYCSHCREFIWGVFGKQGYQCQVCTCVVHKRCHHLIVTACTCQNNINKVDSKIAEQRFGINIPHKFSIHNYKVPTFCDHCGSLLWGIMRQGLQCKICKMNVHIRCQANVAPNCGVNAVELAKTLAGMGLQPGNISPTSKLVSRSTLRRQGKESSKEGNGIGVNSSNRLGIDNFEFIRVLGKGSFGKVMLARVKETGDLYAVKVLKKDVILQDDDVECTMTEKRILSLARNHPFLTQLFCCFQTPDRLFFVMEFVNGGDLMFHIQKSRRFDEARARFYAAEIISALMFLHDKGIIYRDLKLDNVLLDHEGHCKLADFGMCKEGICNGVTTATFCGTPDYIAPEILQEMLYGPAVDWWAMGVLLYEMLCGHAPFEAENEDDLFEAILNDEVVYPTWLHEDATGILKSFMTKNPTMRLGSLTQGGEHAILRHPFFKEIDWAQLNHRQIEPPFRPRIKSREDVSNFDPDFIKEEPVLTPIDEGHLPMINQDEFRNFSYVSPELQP", "test": "Selectivity interaction (Kinase panel (Z-LYTE Assay)) EUB0001632a PRKCH", "conditions": "at 10 µM"}, "[4]": {"molecular_target": "Platelet-derived growth factor receptor beta (Homo sapiens, UniProt P09619)", "sequence (P09619 whole entry)": "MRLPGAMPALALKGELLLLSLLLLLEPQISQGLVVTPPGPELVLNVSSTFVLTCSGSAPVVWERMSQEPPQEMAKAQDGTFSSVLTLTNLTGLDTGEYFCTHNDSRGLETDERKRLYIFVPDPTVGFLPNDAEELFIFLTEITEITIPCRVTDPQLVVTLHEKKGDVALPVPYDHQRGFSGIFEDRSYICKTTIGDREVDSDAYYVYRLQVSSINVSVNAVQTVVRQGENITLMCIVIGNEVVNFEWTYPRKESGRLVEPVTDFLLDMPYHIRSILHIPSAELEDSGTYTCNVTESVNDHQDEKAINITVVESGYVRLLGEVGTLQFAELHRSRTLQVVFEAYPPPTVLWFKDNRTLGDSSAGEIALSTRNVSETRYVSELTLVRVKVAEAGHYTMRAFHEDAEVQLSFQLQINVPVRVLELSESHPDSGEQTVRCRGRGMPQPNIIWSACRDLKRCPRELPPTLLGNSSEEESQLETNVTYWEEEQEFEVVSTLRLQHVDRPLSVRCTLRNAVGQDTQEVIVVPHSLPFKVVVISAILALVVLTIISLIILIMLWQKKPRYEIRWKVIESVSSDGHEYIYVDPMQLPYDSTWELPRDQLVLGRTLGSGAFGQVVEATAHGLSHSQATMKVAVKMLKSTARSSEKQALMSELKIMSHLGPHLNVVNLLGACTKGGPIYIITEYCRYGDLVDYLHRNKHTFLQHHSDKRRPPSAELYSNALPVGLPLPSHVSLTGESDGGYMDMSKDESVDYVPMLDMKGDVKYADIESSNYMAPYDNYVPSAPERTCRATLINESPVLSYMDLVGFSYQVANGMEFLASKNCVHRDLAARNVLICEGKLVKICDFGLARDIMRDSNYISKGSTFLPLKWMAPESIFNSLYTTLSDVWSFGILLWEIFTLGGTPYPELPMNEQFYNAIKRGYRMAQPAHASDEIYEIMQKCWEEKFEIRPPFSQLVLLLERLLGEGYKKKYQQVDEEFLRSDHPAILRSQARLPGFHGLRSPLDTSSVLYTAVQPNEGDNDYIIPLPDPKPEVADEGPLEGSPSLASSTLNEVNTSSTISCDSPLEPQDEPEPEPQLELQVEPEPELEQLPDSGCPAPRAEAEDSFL", "test": "Selectivity interaction (KinomeScan (DiscoverX)) EUB0000666a PDGFRB", "conditions": "at 10 µM"}, "[5]": {"molecular_target": "T1, Tyrosine-protein kinase ABL2 (Homo sapiens, UniProt P42684)", "T1 sequence (P42684 whole entry)": "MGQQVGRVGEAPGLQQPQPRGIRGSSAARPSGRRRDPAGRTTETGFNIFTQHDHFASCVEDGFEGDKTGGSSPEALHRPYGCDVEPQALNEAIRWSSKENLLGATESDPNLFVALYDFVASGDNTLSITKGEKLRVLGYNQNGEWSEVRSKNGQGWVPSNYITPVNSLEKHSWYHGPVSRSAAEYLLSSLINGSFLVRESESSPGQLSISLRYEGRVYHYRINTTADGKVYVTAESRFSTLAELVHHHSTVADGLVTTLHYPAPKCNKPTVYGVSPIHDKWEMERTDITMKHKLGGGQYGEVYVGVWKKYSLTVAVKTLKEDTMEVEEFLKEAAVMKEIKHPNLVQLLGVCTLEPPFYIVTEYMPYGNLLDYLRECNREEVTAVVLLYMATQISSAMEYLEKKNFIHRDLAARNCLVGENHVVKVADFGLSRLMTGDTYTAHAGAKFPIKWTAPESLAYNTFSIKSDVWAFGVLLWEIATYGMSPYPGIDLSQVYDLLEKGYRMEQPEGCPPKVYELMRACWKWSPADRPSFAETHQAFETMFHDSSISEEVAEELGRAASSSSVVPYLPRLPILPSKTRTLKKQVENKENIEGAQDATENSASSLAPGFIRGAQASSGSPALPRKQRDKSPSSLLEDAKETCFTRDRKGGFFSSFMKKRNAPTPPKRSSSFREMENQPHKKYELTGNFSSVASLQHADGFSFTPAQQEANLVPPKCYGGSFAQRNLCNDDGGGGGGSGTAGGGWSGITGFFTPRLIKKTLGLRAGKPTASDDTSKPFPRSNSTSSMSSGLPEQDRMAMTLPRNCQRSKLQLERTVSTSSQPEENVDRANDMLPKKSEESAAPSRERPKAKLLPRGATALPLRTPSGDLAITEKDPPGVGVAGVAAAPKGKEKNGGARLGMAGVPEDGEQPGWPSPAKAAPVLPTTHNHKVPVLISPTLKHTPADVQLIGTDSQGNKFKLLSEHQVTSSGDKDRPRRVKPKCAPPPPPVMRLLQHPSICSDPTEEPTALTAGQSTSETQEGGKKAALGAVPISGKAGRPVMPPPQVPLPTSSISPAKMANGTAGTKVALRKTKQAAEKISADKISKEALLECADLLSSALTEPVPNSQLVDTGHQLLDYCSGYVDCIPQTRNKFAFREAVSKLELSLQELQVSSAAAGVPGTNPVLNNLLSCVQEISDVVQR", "test": "Selectivity interaction (KinomeScan (DiscoverX)) EUB0001049a ABL2", "conditions": "at 1 µM"}, "[6]": {"molecular_target": "Receptor-interacting serine/threonine-protein kinase 2 (Homo sapiens, UniProt O43353)", "sequence (O43353 whole entry)": "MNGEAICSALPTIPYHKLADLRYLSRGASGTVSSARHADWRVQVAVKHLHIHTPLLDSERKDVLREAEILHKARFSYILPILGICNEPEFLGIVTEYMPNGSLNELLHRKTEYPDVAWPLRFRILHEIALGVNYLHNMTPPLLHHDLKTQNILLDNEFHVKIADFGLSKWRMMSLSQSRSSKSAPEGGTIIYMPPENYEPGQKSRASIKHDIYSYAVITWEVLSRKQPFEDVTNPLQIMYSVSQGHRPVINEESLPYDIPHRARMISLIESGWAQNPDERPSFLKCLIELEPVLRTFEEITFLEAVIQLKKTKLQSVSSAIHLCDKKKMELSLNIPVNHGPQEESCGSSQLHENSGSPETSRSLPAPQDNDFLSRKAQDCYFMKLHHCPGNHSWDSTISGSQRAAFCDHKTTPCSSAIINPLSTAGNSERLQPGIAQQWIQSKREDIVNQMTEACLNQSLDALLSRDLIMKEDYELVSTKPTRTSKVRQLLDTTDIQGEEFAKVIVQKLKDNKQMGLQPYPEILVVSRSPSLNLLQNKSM", "test": "Selectivity interaction (KinomeScan (DiscoverX)) EUB0000607a RIPK2", "conditions": "at 10 µM"}, "[7]": {"molecular_target": "T2, Serine/threonine-protein kinase D2 (Homo sapiens) (UniProt Q9BZL6)", "T2 sequence (whole entry)": "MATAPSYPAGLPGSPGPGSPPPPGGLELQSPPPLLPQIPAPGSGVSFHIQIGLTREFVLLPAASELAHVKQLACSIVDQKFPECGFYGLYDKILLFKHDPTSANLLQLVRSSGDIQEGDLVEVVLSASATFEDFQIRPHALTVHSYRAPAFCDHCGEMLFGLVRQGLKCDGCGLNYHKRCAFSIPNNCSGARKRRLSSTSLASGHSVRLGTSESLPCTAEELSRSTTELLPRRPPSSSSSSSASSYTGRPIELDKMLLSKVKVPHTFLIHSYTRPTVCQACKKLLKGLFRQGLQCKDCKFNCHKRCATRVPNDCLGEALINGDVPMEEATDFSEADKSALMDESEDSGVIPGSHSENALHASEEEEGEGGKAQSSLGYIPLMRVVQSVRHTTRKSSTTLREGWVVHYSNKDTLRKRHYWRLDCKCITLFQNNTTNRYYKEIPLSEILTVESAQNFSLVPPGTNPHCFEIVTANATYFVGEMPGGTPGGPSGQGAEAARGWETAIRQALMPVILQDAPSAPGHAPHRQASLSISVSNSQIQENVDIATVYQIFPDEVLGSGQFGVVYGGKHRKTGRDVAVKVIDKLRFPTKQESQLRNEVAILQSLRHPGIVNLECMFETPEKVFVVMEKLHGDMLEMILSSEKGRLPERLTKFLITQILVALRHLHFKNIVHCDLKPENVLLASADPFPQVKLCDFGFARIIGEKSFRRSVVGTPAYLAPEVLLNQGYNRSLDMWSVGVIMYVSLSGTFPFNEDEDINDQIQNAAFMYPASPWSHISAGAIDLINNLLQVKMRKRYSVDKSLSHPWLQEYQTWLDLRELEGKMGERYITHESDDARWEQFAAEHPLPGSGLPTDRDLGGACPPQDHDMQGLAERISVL", "test": "Selectivity interaction (ActivX KiNativ screen (kinase selectivity in THP-1 cell lysates)) EUB0000639a PRKD2", "type": "subcellular", "conditions": "lysate, at 1 µM"}, "[8]": {"molecular_target": "T1, Tyrosine-protein kinase ABL2", "conditions": "at 10 µM"}, "[9]": {"molecular_target": "T3, Cyclin-G-associated kinase (Homo sapiens) (UniProt O14976)", "T3 sequence (whole entry)": "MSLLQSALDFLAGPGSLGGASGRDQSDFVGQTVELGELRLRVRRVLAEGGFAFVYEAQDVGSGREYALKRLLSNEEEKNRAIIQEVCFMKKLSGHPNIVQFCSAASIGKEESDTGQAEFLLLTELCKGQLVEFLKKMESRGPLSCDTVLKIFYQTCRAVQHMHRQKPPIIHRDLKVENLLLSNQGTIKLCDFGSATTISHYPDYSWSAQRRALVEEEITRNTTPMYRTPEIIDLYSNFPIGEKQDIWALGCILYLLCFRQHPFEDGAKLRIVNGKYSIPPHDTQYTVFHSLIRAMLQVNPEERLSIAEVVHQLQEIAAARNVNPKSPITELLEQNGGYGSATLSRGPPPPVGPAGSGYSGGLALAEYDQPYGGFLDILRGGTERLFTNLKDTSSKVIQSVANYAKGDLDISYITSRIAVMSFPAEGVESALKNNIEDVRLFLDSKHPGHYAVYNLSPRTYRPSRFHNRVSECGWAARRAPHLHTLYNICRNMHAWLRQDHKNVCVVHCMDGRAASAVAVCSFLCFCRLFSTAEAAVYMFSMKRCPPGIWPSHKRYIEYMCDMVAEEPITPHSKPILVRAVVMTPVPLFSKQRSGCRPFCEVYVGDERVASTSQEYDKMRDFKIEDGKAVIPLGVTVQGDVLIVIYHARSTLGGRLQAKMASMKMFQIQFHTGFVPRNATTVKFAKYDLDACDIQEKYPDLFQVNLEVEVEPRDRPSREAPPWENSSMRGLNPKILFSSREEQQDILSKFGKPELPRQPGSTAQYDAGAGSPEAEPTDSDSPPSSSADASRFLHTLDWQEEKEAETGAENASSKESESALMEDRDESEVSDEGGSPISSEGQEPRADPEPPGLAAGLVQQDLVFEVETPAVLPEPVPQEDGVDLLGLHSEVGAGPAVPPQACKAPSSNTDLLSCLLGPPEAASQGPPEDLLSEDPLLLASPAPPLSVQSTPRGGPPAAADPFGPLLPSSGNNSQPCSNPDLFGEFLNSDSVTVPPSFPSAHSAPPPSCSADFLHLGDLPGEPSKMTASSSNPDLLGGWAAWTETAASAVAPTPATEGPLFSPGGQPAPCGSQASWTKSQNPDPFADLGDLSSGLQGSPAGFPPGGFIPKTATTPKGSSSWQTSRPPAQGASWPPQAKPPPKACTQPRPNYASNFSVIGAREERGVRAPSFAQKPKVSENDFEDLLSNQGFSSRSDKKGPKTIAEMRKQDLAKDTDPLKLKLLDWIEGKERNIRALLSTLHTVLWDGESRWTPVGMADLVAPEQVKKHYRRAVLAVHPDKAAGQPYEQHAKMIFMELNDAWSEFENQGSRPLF", "test": "Selectivity interaction (Ambit KINOMEscan and KiNATiv profiling in Jurkat cells) EUB0000090b GAK", "type": "cell-based", "conditions": "at 1 µM"}}}
{"smiles": "C=CC(=O)Nc1cc(-n2c(=O)ccc3cnc4ccc(-c5ccc(NS(C)(=O)=O)cc5)cc4c32)ccc1C", "values": [{"measurement": "% of control", "setting": "[1]", "value": 95, "unit": "%"}]}
{"smiles": "Nc1cnc(N2CCc3cc(S(=O)(=O)Nc4c(F)cc(Cl)cc4F)cc(N4CCCC4=O)c32)nc1", "note": "[TP-020n]", "values": [{"measurement": "% of control", "setting": "[2]", "value": 86, "unit": "%"}]}
{"smiles": "Cn1cc(-n2cnc3c(NCc4nc5cc(Cl)c(Cl)cc5[nH]4)nc(N4CCOCC4)nc32)cn1", "values": [{"measurement": "% of control", "setting": "[3]", "value": 19.3, "unit": "%"}]}
{"smiles": "O=C(NOC[C@H](O)CO)c1ccc(F)c(F)c1Nc1ccc(I)cc1F", "values": [{"measurement": "% of control", "setting": "[4]", "value": 66, "unit": "%"}]}
{"smiles": "COc1cc(Nc2nc(C)cc(-c3cnn4nc(OC)ccc34)n2)cc(C(F)(F)F)c1", "values": [{"measurement": "% of control", "setting": "[5]", "value": 76, "unit": "%"}]}
{"smiles": "CNC(=O)Nc1ccc(-c2nc(N3CC4CCC(C3)O4)c3cnn(C4CCC5(CC4)OCCO5)c3n2)cc1", "values": [{"measurement": "% of control", "setting": "[6]", "value": 71, "unit": "%"}]}
{"smiles": "CC[C@@H]1[C@H](F)C(=O)N[C@@H]1COc1nccc2cc(C(N)=O)c(OC)cc12", "note": "[ZIMLOVISERTIB]", "values": [{"measurement": "% of inhibition", "setting": "[7]", "value": 8, "unit": "%"}]}
{"smiles": "CCN(CC)CCCCNc1ncc2cc(-c3cc(OC)cc(OC)c3)c(NC(=O)NC(C)(C)C)nc2n1", "values": [{"measurement": "% of control", "setting": "[8]", "value": 100, "unit": "%"}]}
{"smiles": "CN(C)C/C=C/C(=O)Nc1ccc(C(=O)N2CCCC(Nc3ncc(Cl)c(-c4c[nH]c5ccccc45)n3)C2)cc1", "note": "(centres undefined)", "values": [{"measurement": "% of control", "setting": "[9]", "value": 93, "unit": "%"}]}
